Experimental data: patent US7803801B2, “Aminopyridine compounds having Syk inhibitory activity” (Japan Tobacco, Inc., priority 2005, dated 2010)
Structures can show the parent of a compound that is named as a salt. Where two headings read alike, the source gives them in different places.

Legend:
[1] = system: cultured human mast cells; assay: Degranulation inhibition test using cultured human mast cells (IgE cross-linking, β-Hexosaminidase release); format: cell-based; details: Mast cell, cultured human mast cells, read-out: human degranulation ave. IC50
Procedure: Degranulation Inhibition Test Using Cultured Human Mast Cells
(1) Separation of Hematopoietic Stem Cells;
After 10 to 60 mL of umbilical cord blood collected with heparin was diluted with an equivalent amount of buffer (0.5% BSA, 2 mM EDTA/PBS-), it was superposed on Ficoll-Paque (Amersham Pharmacia Biotech) (Ficoll/Blood (1:2)) and mononuclear leukocyte fraction was collected by centrifuging it at 400 G (1350 rpm) 4° C. for 30 minutes. After centrifugal washing (1500 rpm, 5 min, 4° C.×3) with buffer, the number of cells was counted and 0.1 mL of CD34 Progenitor Cell Isolation Kit (Miltenyi Biotec), Reagent A1 (Fc blocking) was added for 1×10^8 cells. After agitation, 0.1 mL of Reagent A2 (CD34 antibody-hapten) was added (final volume 0.5 mL/1×10^8 cells) and incubated at 9° C. for further 15 minutes after agitation. After centrifugal washing (1500 rpm, 5 min, 4° C.×3), it was resuspeded in a buffer (0.4 mL) and 0.1 mL of Reagent B (anti hapten antibody-microbeads) was added and agitated (final volume 0.5 mL/1×10^8 cells) and incubated at 9° C. for further 15 minutes. After centrifugal washing (1500 rpm, 5 min, 4° C.×2), it was resuspeded in a buffer (0.5 mL) and loaded on CS column (Miltenyi Biotec) set in MACS (MAgnetic Cell Sorting system; Miltenyi Biotec, Daiichi Pure Chemicals) and washed with 30 mL of buffer to remove CD34^− cells. The column was separated from MACS and eluted with 30 mL of buffer and CD34^+ cells bound to the column were collected and used as a hematopoietic stem cell population.
(2) Acquisition of Human Mast Cells by Long-Term Culturing of Hematopoietic Stem Cells;
The CD34^+ cells separated in (1) were resuspended in Iscove's Modified Dulbecco's Medium (IMDM, Gibco) containing human (rh)SCF (1 μg/mL, Peprotech), rhIL-6 (0.5 μg/mL, Peprotech), rhIL-3 (10 ng/mL, Peprotech), 1% Insulin-Transferrin (Gibco), 5×10^−5M 2-ME (Gibco), 0.1% BSA (Sigma) in a density of 1×10^6 cells/ml and disseminated on 24-well culture plate with a dose of 0.1 mL/well and 0.9 ml of IMDM (Methocult SF^BIT StemCell technology) containing 0.9% methyl cellulose was added and culturing was started. The above culture medium (excluding methyl cellulose) was added in a week and after that 100 μL/well of the above culture medium (further excluding IL-3) was added at an interval of every once a week so that cells were diluted to maintain 10^5 cells/mL/well order and cultured more than about 8 weeks and thereby human culture mast cells were obtained.
(3) Expression Enhancement of FcεRI and Inhibition Test IgE Cross-Linking Stimulating Degranulation;
rhIL-4 (final concentration 1 ng/mL, R & D) and Homo sapiens(h) IgE (final concentration 0.5 μg/mL, CHEMICON) were added to the obtained human culture mast cells, and they were incubated for 5 days to enhance the expression of FcεRI. After incubation, cells were collected and, after centrifugal washing (IMDM), they were disseminated on 96-well culture plate in 5×10^4 cells/80 μL/well.
10 μL of a compound 10-fold diluted with IMDM after dissolved in DMSO (DMSO final concentration 0.1%) was added and reacted at 37° C. for 10 minutes. Further, 10 μL of anti-hIgE Ab (CHEMICON) adjusted to 100 μg/mL (final concentration 10 μg/mL) was added and degranulation was caused by being stimulated at 37° C. for 30 minutes. After centrifugation, 50 μL/well of the supernatant was collected and stored at −40° C. untill the quantity of degranulation was measured. The measurement of quantity of degranulation was performed using enzymatic activity of β-Hexosaminidase contained in the granulates as an index. That is, an equivalent amount of p-nitrophenyl-N-acetyl-β-D-glucosaminide (1 mM) (containing 0.1% Triton X-100) which is a substrate of β-Hexosaminidase was added to 50 μL of the culture filtrate, and after reacted at 37° C. for 2 hours, the reaction was terminated by using 100 μL of Carbonate buffer (0.1M, pH 10). […]

[2] = biological target: GST-Syk Full Protein (human) (Homo sapiens, UniProt P43405); assay: Syk kinase inhibition test (HTRF method); format: biochemical
Summary of the method: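 HTRF read-out: after EDTA termination and 1 h with XL665-streptavidin and Eu-anti-phosphotyrosine, the 665/620 nm ratio was measured. The reaction ran 30 min at 20–25 °C with final 6.4 nM human GST-Syk, 250 nM biotinylated peptide, 100 μM ATP, pH 7.0 HEPES buffer, 2% DMSO.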

[3] = anti-hIgE stimulation, β-Hexosaminidase index, average
[4] = HTRF, 100 μM ATP, 30 min room temperature, average, read-out: sykHTRF ave IC50
[5] = Tables 2-x, thiophene compounds B
[6] = Tables 2-x, thiophene compounds B, read-out: sykHTRK ave IC50
[7] = Tables 1-x, compounds A, read-out: sykHTRF ave IC50

Structure (SMILES): Cc1ccnc(Nc2cccc(-c3cnc([C@@H]4COC(C)(C)N4C(=O)OC(C)(C)C)s3)n2)c1 [Compound A-12, (S)-2,2-dimethyl-4-{5-[6-(4-methylpyridin-2-ylamino)pyridin-2-yl]thiazol-2-yl}oxazolidine-3-carboxylic acid tert-butyl ester]
- IC50 [1, 3]: > 1000 nM
- IC50 [2, 4]: > 1000 nM

Structure (SMILES): CC(=O)c1cc(C)c(-c2cccc(Nc3cc(C)ccn3)n2)s1 [Compound B-6]
- IC50 [1, 5]: 100 to 1000 nM
- IC50 [2, 6]: 100 to 1000 nM

Structure (SMILES): CCC(=NO)c1ccc(-c2cccc(Nc3cc(C)ccn3)n2)s1 [Compound B-51, 1-{5-[6-(4-methylpyridin-2-ylamino)pyridin-2-yl]thiophen-2-yl}propan-1-one oxime]
- IC50 [1, 5]: > 1000 nM
- IC50 [2, 6]: < 100 nM

Structure (SMILES): Cc1ccnc(Nc2cccc(-c3sc(N4CCOCC4)nc3C)n2)c1 [Compound A-425, N-[6-(4-methyl-2-morpholin-4-ylthiazol-5-yl)pyridin-2-yl]-N-(4-methylpyridin-2-yl)amine]
- IC50 [1, 3]: 100 to 1000 nM
- IC50 [2, 4]: < 100 nM

Structure (SMILES): CC(=O)c1ccc(-c2cccc(Nc3cc(C4=NC(C)(C)CO4)ccn3)n2)s1 [Compound B-87, 1-(5-{6-[4-(4,4-dimethyl-4,5-dihydrooxazol-2-yl)pyridin-2-ylamino]pyridin-2-yl}thiophen-2-yl)ethanone]
- IC50 [1, 5]: 100 to 1000 nM
- IC50 [2, 6]: < 100 nM

Structure (SMILES): CNC(=O)N1CCN(c2ncc(-c3cccc(Nc4cc(C)ccn4)n3)s2)CC1 [Compound A-427, N-methyl-4-{5-[6-(4-methylpyridin-2-ylamino)pyridin-2-yl]thiazol-2-yl}piperazine-1-carboxamide]
- IC50 [1, 3]: < 100 nM
- IC50 [2, 4]: < 100 nM

Structure (SMILES): CNC(=O)c1cc(C)c(-c2cccc(Nc3cc(C)ccn3)n2)s1 [Compound B-9]
- IC50 [1, 5]: 100 to 1000 nM
- IC50 [2, 6]: 100 to 1000 nM

Structure (SMILES): Cc1ccnc(Nc2cccc(-c3cnc(CN4CCC(NC(=O)CO)CC4)s3)n2)c1 [Compound A-247]
- IC50 [1, 3]: 100 to 1000 nM
- IC50 [2, 4]: 100 to 1000 nM

Structure (SMILES): CNCc1ccc(-c2cccc(Nc3cc(C)ccn3)n2)s1 [Compound B-25]
- IC50 [1, 5]: > 1000 nM
- IC50 [2, 6]: 100 to 1000 nM

Structure (SMILES): Cc1ccnc(Nc2cccc(-c3cnc(N4CCC(C(C)C(=O)O)CC4)s3)n2)c1 (centres unmarked) [Compound A-652, 2-(1-{5-[6-(4-methylpyridin-2-ylamino)pyridin-2-yl]thiazol-2-yl}piperidin-4-yl)propionic acid]
- IC50 ([1]; Tables 1-x, compounds A): < 100 nM
- IC50 [2, 7]: < 100 nM

Structure (SMILES): CNC(=O)[C@@H]1CCCN1c1ncc(-c2cccc(Nc3cc(C)ccn3)n2)s1 [Compound A-488, N-methyl-(S)-1-{5-[6-(4-methylpyridin-2-ylamino)pyridin-2-yl]thiazol-2-yl}pyrrolidine-2-carboxamide dihydrochloride]
- IC50 ([1]; Tables 1-x, compounds A): 100 to 1000 nM
- IC50 [2, 7]: < 100 nM

Structure (SMILES): Cc1ccnc(Nc2cccc(-c3cnc([C@@H](N)Cc4ccc(OCc5ccccc5)cc4)s3)n2)c1 [Compound A-86]
- IC50 [1, 3]: > 1000 nM
- IC50 [2, 4]: 100 to 1000 nM

Structure (SMILES): C[C@H](O)c1ncc(-c2cccc(Nc3cc(CCO)ccn3)n2)s1 [Compound A-321, (S)-1-(5-{6-[4-(2-hydroxyethyl)pyridin-2-ylamino]pyridin-2-yl}thiazol-2-yl)ethanol]
- IC50 [1, 3]: < 100 nM
- IC50 [2, 4]: < 100 nM

Structure (SMILES): CC(=O)NC(C)c1ccc(-c2cccc(Nc3cc(C)ccn3)n2)s1 (centres unmarked) [Compound B-93]
- IC50 [1, 5]: 100 to 1000 nM
- IC50 [2, 6]: 100 to 1000 nM

Structure (SMILES): COC(=O)CCNC(=O)c1ccc(-c2cccc(Nc3cc(C)ccn3)n2)s1 [Compound B-97]
- IC50 [1, 5]: > 1000 nM
- IC50 [2, 6]: 100 to 1000 nM

Structure (SMILES): Cc1ccnc(Nc2cccc(-c3cnc(Cc4ccc(C(=O)N5C[C@@H](O)[C@@H](O)C5)cc4)s3)n2)c1 [Compound A-244]
- IC50 [1, 3]: 100 to 1000 nM
- IC50 [2, 4]: 100 to 1000 nM

Structure (SMILES): Cc1ccnc(Nc2cccc(-c3cnc(C4CCN(S(=O)(=O)C(C)C)CC4)s3)n2)c1 [Compound A-398]
- IC50 ([1]; Tables 1-x, compounds A): > 1000 nM
- IC50 [2, 7]: 100 to 1000 nM

Structure (SMILES): Cc1ccnc(Nc2cccc(-c3cnc(Cc4ccc(C(=O)O)cc4)s3)n2)c1 [Compound A-224]
- IC50 [1, 3]: > 1000 nM
- IC50 [2, 4]: 100 to 1000 nM

Structure (SMILES): CC(=O)N[C@@H](C)c1ncc(-c2cccc(Nc3cc(C(C)=O)ccn3)n2)s1 [Compound A-212]
- IC50 [1, 3]: 100 to 1000 nM
- IC50 [2, 4]: 100 to 1000 nM

Structure (SMILES): Cc1ccnc(Nc2cccc(-c3cnc([C@@H]4COC(=O)N4CC(=O)N4C[C@@H](O)[C@@H](O)C4)s3)n2)c1 [Compound A-404]
- IC50 ([1]; Tables 1-x, compounds A): > 1000 nM
- IC50 [2, 7]: > 1000 nM

Structure (SMILES): COc1ccnc(Nc2cccc(-c3cnc(N4CC[C@@H](O)C4)s3)n2)c1 [Compound A-538, (R)-1-{5-[6-(4-methoxypyridin-2-ylamino)pyridin-2-yl]thiazol-2-yl}pyrrolidin-3-ol]
- IC50 ([1]; Tables 1-x, compounds A): 100 to 1000 nM
- IC50 [2, 7]: < 100 nM

Structure (SMILES): Cc1ccnc(Nc2cccc(-c3cnc([C@H]4CC[C@H](C(=O)NCCN5CCOCC5)CC4)s3)n2)c1 [Compound A-268, N-(2-morpholin-4-ylethyl)-trans-4-{5-[6-(4-methylpyridin-2-ylamino)pyridin-2-yl]thiazol-2-yl}cyclohexanecarboxamide]
- IC50 [1, 3]: 100 to 1000 nM
- IC50 [2, 4]: < 100 nM

Structure (SMILES): Cc1ccnc(Nc2cccc(-c3cnc([C@@H](N)CO)s3)n2)c1 [Compound A-13, (S)-2-amino-2-{5-[6-(4-methylpyridin-2-ylamino)pyridin-2-yl]thiazol-2-yl}ethanol]
- IC50 [1, 3]: 100 to 1000 nM
- IC50 [2, 4]: 100 to 1000 nM

Structure (SMILES): Cc1ccnc(Nc2cccc(-c3cnc([C@H](C)OC(=O)N(C)C)s3)n2)c1 [Compound A-345, dimethylcarbamic acid(S)-1-{5-[6-(4-methylpyridin-2-ylamino)pyridin-2-yl]thiazol-2-yl}ethyl ester]
- IC50 [1, 3]: 100 to 1000 nM
- IC50 [2, 4]: < 100 nM

Structure (SMILES): Cc1ccnc(Nc2cccc(-c3cnc(C4CCCC(C(=O)N5CCC(O)CC5)C4)s3)n2)c1 (centres unmarked) [Compound A-272]
- IC50 [1, 3]: 100 to 1000 nM
- IC50 [2, 4]: 100 to 1000 nM

Structure (SMILES): Cc1ccnc(Nc2cccc(-c3cnc([C@H]4CC[C@H](C(=O)N5CCN(C)CC5)CC4)s3)n2)c1 [Compound A-300]
- IC50 [1, 3]: 100 to 1000 nM
- IC50 [2, 4]: 100 to 1000 nM

Structure (SMILES): O=C(NO)[C@@H]1CCCN(c2ncc(-c3cccc(Nc4cc(Cl)ccn4)n3)s2)C1 [Compound A-552, N-hydroxy-(R)-1-{5-[6-(4-chloropyridin-2-ylamino)pyridin-2-yl]thiazol-2-yl}piperidine-3-carboxamide]
- IC50 ([1]; Tables 1-x, compounds A): 100 to 1000 nM
- IC50 [2, 7]: < 100 nM

Structure (SMILES): Cc1ccnc(Nc2cccc(-c3cnc([C@@H](N)Cc4ccccc4)s3)n2)c1 [Compound A-40]
- IC50 [1, 3]: > 1000 nM
- IC50 [2, 4]: 100 to 1000 nM

Structure (SMILES): COCCO/N=C(\C)c1ccc(-c2cccc(Nc3cc(C)ccn3)n2)s1 [Compound B-46]
- IC50 [1, 5]: > 1000 nM
- IC50 [2, 6]: 100 to 1000 nM

Structure (SMILES): Cc1ccnc(Nc2cccc(-c3cnc([C@H](CO)NC(=O)c4ccc(O)cc4)s3)n2)c1 [Compound A-394]
- IC50 ([1]; Tables 1-x, compounds A): 100 to 1000 nM
- IC50 [2, 7]: 100 to 1000 nM

Structure (SMILES): OCCN(CCO)c1ncc(-c2cccc(Nc3cc(Cl)ccn3)n2)s1 [Compound A-545, 2-[N-{5-[6-(4-chloropyridin-2-ylamino)pyridin-2-yl]thiazol-2-yl}-N-(2-hydroxyethyl)amino]ethanol]
- IC50 ([1]; Tables 1-x, compounds A): < 100 nM
- IC50 [2, 7]: < 100 nM
